Results as given in patent US20150352108A1, “AMINO-PYRIMIDINE COMPOUNDS AS INHIBITORS OF TBK1 AND/OR IKK EPSILON” (Alzheimer's Institute of America, priority 2009, published 2015).
Where two headings read alike, the source gives them in different places.

Experiments:
[1] = biological target: T1, IKKε (Homo sapiens, UniProt Q14164); assay: In-vitro IKKε kinase assay ([γ33]ATP filter-plate); assay type: biochemical
T1 construct: His-tag; made in house; host or cells: Sf9 insect cells
T1 sequence (Q14164 1-716): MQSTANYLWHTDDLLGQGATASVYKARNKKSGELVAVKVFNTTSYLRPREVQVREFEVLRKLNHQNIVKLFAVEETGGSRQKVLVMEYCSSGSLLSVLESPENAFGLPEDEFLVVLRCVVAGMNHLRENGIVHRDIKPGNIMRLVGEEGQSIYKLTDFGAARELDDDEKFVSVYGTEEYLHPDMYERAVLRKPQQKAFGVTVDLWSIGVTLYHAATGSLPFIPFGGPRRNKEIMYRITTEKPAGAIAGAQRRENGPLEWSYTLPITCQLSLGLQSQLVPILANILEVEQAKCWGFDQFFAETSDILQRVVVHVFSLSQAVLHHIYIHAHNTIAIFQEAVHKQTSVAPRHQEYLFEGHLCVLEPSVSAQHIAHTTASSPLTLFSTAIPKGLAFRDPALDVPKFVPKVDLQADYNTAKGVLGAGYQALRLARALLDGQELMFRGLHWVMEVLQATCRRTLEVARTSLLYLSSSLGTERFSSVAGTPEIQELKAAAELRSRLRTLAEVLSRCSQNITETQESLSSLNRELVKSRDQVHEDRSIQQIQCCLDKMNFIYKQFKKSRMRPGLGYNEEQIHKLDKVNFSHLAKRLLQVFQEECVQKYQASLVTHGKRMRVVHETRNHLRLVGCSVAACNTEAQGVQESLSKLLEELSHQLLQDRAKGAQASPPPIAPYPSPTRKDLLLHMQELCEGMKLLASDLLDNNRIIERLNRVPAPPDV
Summary of the method: (§1)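 Phosphorylation of casein or myelin basic protein was counted by P-81 filter capture after 30-45 min reactions stopped with phosphoric acid, with counts normalized to DMSO after background subtraction. ATP was twice Km: 60 μM for TBK1 and 32 μM for IKKε, plus [γ33]ATP. Sf9-expressed His-tag enzymes were used at normal/sensitized levels of 0.1/0.02 μg/ml (TBK1) and 0.1/0.015 μg/ml (IKKε).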

[2] = biological target: T2, TBK1 (Homo sapiens, UniProt Q9UHD2); assay: In-vitro TBK1 kinase assay ([γ33]ATP filter-plate); assay type: biochemical
T2 construct: His-tag; made in house; host or cells: Sf9 insect cells
T2 sequence (Q9UHD2 1-729): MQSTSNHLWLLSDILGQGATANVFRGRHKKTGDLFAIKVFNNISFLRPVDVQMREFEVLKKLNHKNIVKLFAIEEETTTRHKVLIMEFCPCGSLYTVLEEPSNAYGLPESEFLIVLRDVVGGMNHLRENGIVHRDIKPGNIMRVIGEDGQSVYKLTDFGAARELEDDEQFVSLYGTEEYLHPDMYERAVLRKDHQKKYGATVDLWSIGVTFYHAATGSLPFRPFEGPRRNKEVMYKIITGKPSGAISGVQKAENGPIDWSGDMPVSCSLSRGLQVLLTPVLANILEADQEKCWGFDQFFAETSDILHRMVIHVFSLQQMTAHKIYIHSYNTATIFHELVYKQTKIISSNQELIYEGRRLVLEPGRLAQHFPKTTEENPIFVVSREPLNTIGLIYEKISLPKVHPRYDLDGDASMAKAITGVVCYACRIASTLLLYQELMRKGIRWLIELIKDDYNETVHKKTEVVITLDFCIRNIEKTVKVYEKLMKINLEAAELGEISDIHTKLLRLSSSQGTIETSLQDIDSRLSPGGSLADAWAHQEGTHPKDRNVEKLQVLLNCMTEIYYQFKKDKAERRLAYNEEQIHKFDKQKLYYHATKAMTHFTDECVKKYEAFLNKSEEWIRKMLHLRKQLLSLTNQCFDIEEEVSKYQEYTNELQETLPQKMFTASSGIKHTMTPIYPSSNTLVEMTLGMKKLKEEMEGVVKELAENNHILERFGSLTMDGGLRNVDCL
Summary of the method: as §1

[3] = test system: IKKε-mediated phosphorylation of IRF3; assay: In-situ phosphorylation of IRF3 (pIRF3 Ser396 ELISA) in HEK293T cells cotransfected with IRF3 and IKKε; assay type: cell-based; conditions: Homo sapiens, HEK-293T
Summary of the method: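 Cells for the IRF7 Western blots carried IRF7 and TBK1 plasmids, were seeded at 150,000/well, exposed to compound overnight and probed for pSer477/Ser479 IRF7. The ELISA readout used IRF3 + IKKε-cotransfected HEK293T at 20,000/well with 20 h treatment, quantifying pSer396 IRF3 relative to DMSO, plus a parallel CellTiter-Glo viability check.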

[4] = text bins, read-out: IC50 for inhibition of the kinase activity of IKKε
[5] = text bins, read-out: IC50 for inhibition of the kinase activity of TBK1
[6] = HEK293T cells in culture, Table 3, read-out: pIRF3 ELISA IC50
[7] = HEK293T cells, 20 hours, text bins, read-out: IC50 for inhibition of the in-situ IKKε-mediated phosphorylation of IRF3

Structure (SMILES)	IC50 ([1]; Table 3, read-out: IKKε IC50)	IC50 [1, 4]	IC50 ([2]; Table 3, read-out: TBK1 IC50)	IC50 [2, 5]	IC50 [3, 6]	IC50 [3, 7]
COCCOC1CN(C(=O)c2ccc(Nc3nccc(-c4ccc(OC5CCOCC5)c(C#N)c4)n3)cc2OC)C1 [compound 632, 5-{2-[(3-Methoxy-4-{[3-(2-methoxyethoxy)azetidin-1-yl]carbonyl}phenyl)amino]pyrimidin-4-yl}-2-(tetrahydro-2H-pyran-4-yloxy)benzonitrile]	0.0005 µM	< 0.005 µM	0.0004 µM	< 0.01 µM	0.0228 µM	< 0.1 µM
COc1cc(Nc2nccc(-c3ccc(NC(=O)C4CC4)c(C#N)c3)n2)ccc1C(=O)N1CC(OC)C1 [compound 603, N-{2-Cyano-4-[2-({3-methoxy-4-[(3-methoxyazetidin-1-yl)carbonyl]phenyl}amino)pyrimidin-4-yl]phenyl} cyclopropane-carboxamide]	–	< 0.005 µM	–	< 0.01 µM	–	0.1 to 0.25 µM
N#Cc1cc(-c2ccnc(Nc3ccc(N4CCOCC4)cc3)n2)ccc1OCC1CCCN(C(=O)CO)C1 (stereo not drawn) [Example 219, 2-{[1-(hydroxyacetyl)piperidin-3-yl]methoxy}-5-(2-{[4-(morpholin-4-yl)phenyl]amino}pyrimidin-4-yl)benzonitrile]	–	0.005 to 0.05 µM	–	< 0.01 µM	–	0.1 to 0.25 µM
CN1CCN(CCNc2cccc(Nc3nccc(-c4ccc(OC5CCOCC5)c(C#N)c4)n3)c2)CC1 [compound 616, 5-{2-[(3-{[2-(4-Methylpiperazin-1-yl)ethyl]amino}phenyl)amino]pyrimidin-4-yl}-2-(tetrahydro-2H-pyran-4-yloxy)benzonitrile]	0.0011 µM	< 0.005 µM	0.0016 µM	< 0.01 µM	0.0985 µM	< 0.1 µM
COc1cc(Nc2nccc(-c3ccc(OC4CCOCC4)c(C#N)c3)n2)ccc1O [Example 262, 5-{2-[(4-hydroxy-3-methoxyphenyl)amino]pyrimidin-4-yl}-2-(tetrahydro-2H-pyran-4-yloxy)benzonitrile]	–	< 0.005 µM	–	< 0.01 µM	–	0.25 to 0.5 µM
COc1cc(Nc2nccc(-c3ccc(OC4CCOCC4)c(C#N)c3)n2)ccc1C(=O)NCCN1CCCC1 [compound 504, 4-({4-[3-cyano-4-(tetrahydro-2H-pyran-4-yloxy)phenyl]pyrimidin-2-yl}amino)-2-methoxy-N-[2-(pyrrolidin-1-yl)ethyl]benzamide]	–	< 0.005 µM	–	< 0.01 µM	–	< 0.1 µM
COc1cc(Nc2nccc(-c3ccc(OC4CCOCC4)c(C#N)c3)n2)ccc1S(=O)(=O)N1CCN(C)CC1 [Example 114, 5-[2-({3-methoxy-4-[(4-methylpiperazin-1-yl)sulfonyl]phenyl}amino)pyrimidin-4-yl]-2-(tetrahydro-2H-pyran-4-yloxy)benzonitrile]	–	< 0.005 µM	–	< 0.01 µM	–	< 0.1 µM
N#Cc1cc(-c2ccnc(Nc3ccc(CS(=O)(=O)NCCO)cc3)n2)ccc1OC1CCOCC1 [compound 402, 1-[4-({4-[3-Cyano-4-(tetrahydro-2H-pyran-4-yloxy)phenyl]pyrimidin-2-yl}amino)phenyl]-N-(2-hydroxyethyl) methanesulfonamide]	–	< 0.005 µM	–	< 0.01 µM	–	< 0.1 µM
COc1cc(Nc2nccc(-c3ccc(OC4CCOCC4)c(C#N)c3)n2)ccc1S(=O)(=O)NCCCn1ccnc1 [Example 83, 4-({4-[3-cyano-4-(tetrahydro-2H-pyran-4-yloxy)phenyl]pyrimidin-2-yl}amino)-N-[3-(1H-imidazol-1-yl)propyl]-2-methoxybenzene-sulfonamide]	–	< 0.005 µM	–	< 0.01 µM	–	0.1 to 0.25 µM
COc1cc(Nc2nccc(-c3ccc(OC4CCOCC4)c(C#N)c3)n2)ccc1CN1CC(OC)C1 [compound 482, 5-[2-({3-Methoxy-4-[(3-methoxyazetidin-1-yl)methyl]phenyl}amino)pyrimidin-4-yl]-2-(tetrahydro-2H-pyran-4-yloxy)benzonitrile]	–	< 0.005 µM	–	< 0.01 µM	–	< 0.1 µM
CC(C)C(=O)Nc1ccc(-c2ccnc(Nc3ccc(CC(=O)N4CCN(C(C)C)CC4)cc3)n2)cc1C#N [compound 418, N-(2-cyano-4-{2-[(4-{2-oxo-2-[4-(propan-2-yl)piperazin-1-yl]ethyl}phenyl)amino]pyrimidin-4-yl}phenyl)-2-methylpropanamide]	–	0.005 to 0.05 µM	–	< 0.01 µM	–	< 0.1 µM
COc1cc(Nc2nccc(-c3ccc(OC4CCOCC4)c(C#N)c3)n2)ccc1C(=O)N1CCN(CCO)CC1 [compound 476, 5-{2-[(4-{[4-(2-Hydroxyethyl)piperazin-1-yl]carbonyl}-3-methoxyphenyl)amino]pyrimidin-4-yl}-2-(tetrahydro-2H-pyran-4-yloxy)benzonitrile]	–	< 0.005 µM	–	< 0.01 µM	–	< 0.1 µM
CNS(=O)(=O)Cc1cccc(Nc2nccc(-c3ccc(OC4CCOCC4)c(C#N)c3)n2)c1 [compound 648, 1-[3-({4-[3-Cyano-4-(tetrahydro-2H-pyran-4-yloxy)phenyl]pyrimidin-2-yl}amino)phenyl]-N-methylmethane-sulfonamide]	0.0039 µM	< 0.005 µM	0.0005 µM	< 0.01 µM	0.179 µM	0.1 to 0.25 µM
CCC(=O)Nc1ccc(-c2ccnc(Nc3ccc(N4CCOCC4)cc3)n2)cc1C#N [compound 445, N-[2-Cyano-4-(2-{[4-(morpholin-4-yl)phenyl]amino}pyrimidin-4-yl)phenyl] propanamide]	–	0.005 to 0.05 µM	–	< 0.01 µM	–	0.25 to 0.5 µM
CNS(=O)(=O)Cc1ccc(Nc2nccc(-c3ccc(NC(=O)C(C)C)c(C#N)c3)n2)cc1 [compound 414, N-{2-cyano-4-[2-({4-[(methylsulfamoyl)methyl]phenyl}amino)pyrimidin-4-yl]phenyl}-2-methylpropanamide]	–	0.005 to 0.05 µM	–	0.01 to 0.1 µM	–	0.1 to 0.25 µM
CCN(CC)CCOc1ccc(Nc2nccc(-c3ccc(OC4CCOCC4)c(C#N)c3)n2)cc1OC [compound 530]	–	< 0.005 µM	–	< 0.01 µM	–	< 0.1 µM
CCN(CC)CCOc1cc(Nc2nccc(-c3ccc(OC4CCOCC4)c(C#N)c3)n2)ccc1F [compound 586, 5-[2-({3-[2-(Diethylamino)ethoxy]-4-fluorophenyl}amino)pyrimidin-4-yl]-2-(tetrahydro-2H-pyran-4-yloxy)benzonitrile]	–	< 0.005 µM	–	< 0.01 µM	–	0.1 to 0.25 µM
N#Cc1cc(-c2ccnc(Nc3ccc(N4CCOCC4)cc3)n2)ccc1NC1CCOCC1 [compound 468, 5-(2-{[4-(morpholin-4-yl)phenyl]amino}pyrimidin-4-yl)-2-(tetrahydro-2H-pyran-4-ylamino) benzonitrile]	–	0.005 to 0.05 µM	–	< 0.01 µM	–	< 0.1 µM
Cc1ccc(Nc2nccc(-c3ccc(OC4CCOCC4)c(C#N)c3)n2)cc1OCCN [compound 559, 5-(2-{[3-(2-Aminoethoxy)-4-methylphenyl]amino}pyrimidin-4-yl)-2-(tetrahydro-2H-pyran-4-yloxy)benzonitrile]	–	< 0.005 µM	–	< 0.01 µM	–	< 0.1 µM
